Results published in ChEMBL document CHEMBL1201862, “PubChem BioAssay data set” (2004).
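Each compound was tested at five concentrations against cells in 96-well plates for 48 hours. At the GI50, growth is halved.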 The source made the active and inactive calls. Cut-off read from the data, not from the text of the source: active = GI50 up to about 1.1 µM and inactive = higher.

Experiments:
Experiment in all cases: DTP human tumour cell line panel, 48 h
[1] = system: HL-60
[2] = system: UO-31
[3] = system: SK-MEL-2
[4] = system: MOLT-4
[5] = system: SNB-19
[6] = system: NCI-H226
[7] = system: SK-MEL-28
[8] = system: SR
[9] = system: KM-20L2
[10] = system: NCI-H460
[11] = system: SNB-75
[12] = system: SW-620
[13] = system: RPMI-8226
[14] = system: CAKI-1
[15] = system: HOP-62
[16] = system: HCT-116
[17] = system: NCI-H522
[18] = system: HCC 2998

Measured: GI50

CCOC(=O)C(C(=O)Cc1ccccc1)c1ccccc1 (centres undefined)
inactive: [1] > 100 µM | [2] > 100 µM | [3] > 100 µM | [4] 87.9 µM | [5] > 100 µM | [6] > 100 µM | [7] > 100 µM | [8] > 100 µM | [9] > 100 µM | [10] > 100 µM | [11] 80 µM | [12] > 100 µM | [13] > 100 µM | [14] > 100 µM | [15] > 100 µM | [16] > 100 µM | [17] > 100 µM

COC(=O)C(=O)C(CC(=O)Nc1c(C)cccc1C)C(=O)OC (centres undefined)
inactive: [1] > 100 µM | [2] > 100 µM | [3] > 100 µM | [4] > 100 µM | [5] > 100 µM | [6] > 100 µM | [7] > 100 µM | [8] > 100 µM | [9] > 100 µM | [10] > 100 µM | [18] > 100 µM | [12] > 100 µM | [13] > 100 µM | [14] > 100 µM | [15] > 100 µM | [16] > 100 µM | [17] > 100 µM

C=CCNC(=S)N1CC(C)C(=O)Nc2ccccc21 (centres undefined)
inactive: [1] > 100 µM | [2] > 100 µM | [3] > 100 µM | [4] > 100 µM | [5] > 100 µM | [6] > 100 µM | [7] > 100 µM | [8] > 100 µM | [9] > 100 µM | [10] > 100 µM | [11] 35.5 µM | [12] > 100 µM | [13] > 100 µM | [15] > 100 µM | [16] > 100 µM | [17] > 100 µM

Cc1c(Cl)cccc1NC(=O)/C(Cl)=C(\Cl)C(=O)O
inactive: [2] 18.7 µM | [3] 19.8 µM | [4] 7.43 µM | [5] 44.8 µM | [6] 20.7 µM | [7] 20.5 µM | [8] 5.26 µM | [9] 21.6 µM | [10] > 100 µM | [18] 20.3 µM | [11] 18.7 µM | [12] 19.4 µM | [13] 11.8 µM | [14] 17.3 µM | [15] 31.8 µM | [16] 14.2 µM | [17] 2.1 µM

CCCCCC[C@@H]1CCC2C(CO)[C@@H](O)CC[C@@H]2C1 (some centres undefined)
inactive: [2] 20.7 µM | [3] 26.7 µM | [4] 18.2 µM | [5] 18.1 µM | [6] 20.6 µM | [7] 19.6 µM | [8] 22.5 µM | [9] 18.4 µM | [10] 15.5 µM | [18] 22 µM | [11] 22.8 µM | [12] 23.1 µM | [13] 25.3 µM | [14] > 10 µM | [15] 18.3 µM | [16] 17.6 µM | [17] 16.3 µM
